The record followed here is patent US9226929B2, “Pharmaceutically active disubstituted triazine derivatives” (Bayer Intellectual Property GMBH, priority 2011, dated 2016).

pKd: −log10 of the molar value. Some results are limits rather than exact numbers.

The target of one assay is T1, CDK7/CyclinH/MAT1 (Homo sapiens, UniProt P50613).
T1 construct: His; purchased Carna Biosciences
Nature of the assay: LanthaScreen Eu Kinase Binding Assay, CDK7. The following applies: tracer 236, read-out: CDK7 (activity range), Kd. How it is done: (§1) This protocol describes how the LanthaScreen Eu Kinase Binding Assay was performed to determine dissociation constants (Kd) of compounds of general formula (I) and CDK/Cyclin complexes. The principle behind this assay is based upon the binding and displacement of an Alexa Fluor 647-labeled tracer, which binds to the active site of kinases. Binding of the tracer to the kinase is detected using a Eu-labeled antibody. Simultaneous binding of both the tracer and antibody to the kinase gives rise to a FRET-signal. Binding of an inhibitor to the kinase competes for binding with the tracer, resulting in a loss of FRET.
(§2) The compounds of general formula (I) summarized in Table 1 were diluted from a 10 mM DMSO stock solution 1:10 in a total volume of 15 μL DMSO. This compound predilution was then serial diluted 1:3 over 8 steps in DMSO and briefly spun down. Each compound solution was now diluted 1:33.33 in kinase buffer (HEPES: 20 mM, pH: 8.0; MgCl2: 10 mM; DTT: 1 mM; Brij-35: 0,01%), mixed thoroughly and spun down. For every sample, 5 μL of the diluted compound were mixed with 5 μL tracer working solution (e.g. 60 nM tracer 236 in kinase buffer for CDK2/Cyclin A) and 5 μL CDK/Cyclin/Anti-GST-AB-working solution (e.g. 15 nM CDK2/Cyclin A, 1:250 dilution of Anti-GST-AB in kinase buffer) in a well of a small volume 384 well plate (Corning Incorporated, Corning, N.Y., USA; order no. 3673). The tracer concentration was adjusted to its dissociation constant (Kd) for the CDK/Cyclin, which was 30 nM for CDK2/Cyclin A, CDK7/Cyclin H and CDK9/Cyclin T1, 20 nM for CDK8/Cyclin C, and 35 nM for CDK9/Cyclin K. For negative controls, in each well 5 μL of DMSO working solution (3% DMSO diluted in kinase buffer) was mixed with 5 μL Anti-GST-AB working solution (e.g. 1:250 dilution of Anti-GST-AB in kinase buffer for CDK2/Cyclin A) and 5 μL Tracer working solution (e.g. 60 nM Tracer 236 in kinase buffer for CDK2/Cyclin A). For positive controls, in each well 5 μL of DMSO working solution (3% DMSO diluted in kinase buffer) was mixed with 5 μL CDK/Cyclin/Anti-GST-AB-working solution: (e.g. 15 nM CDK2/Cyclin A, 1:250 dilution of Anti-GST-AB in kinase buffer) and 5 μL Tracer working solution (e.g. 60 nM Tracer 236 in kinase buffer for CDK2/Cyclin A). Positive and negative controls were calculated from at least 8 different sample wells. The 384 well plates were mixed in a Teleshaker plate mixer (Beckman Coulter, Brea, Calif., USA) at 2000 rpm for 40 sec, and incubated for 1 h at room temperature before reading. The FRET signal was measured at 340 nm excitation, 665 nm and 615 nm emission (for the kinase tracer and LanthaScreen Eu-AB, respectively) with an Envision spectrophotometer (Perkin Elmer, Waltham, Mass., USA) with […]. Kd values were determined from the sigmoidal dose response curves with the software Quattro Workflow (Quattro GmbH, Munich, Germany).

In the next assay the target is T2, CDK9/Cyclin K (Homo sapiens, UniProt P50750).
T2 construct: His; purchased Invitrogen
T2 sequence (P50750 whole entry): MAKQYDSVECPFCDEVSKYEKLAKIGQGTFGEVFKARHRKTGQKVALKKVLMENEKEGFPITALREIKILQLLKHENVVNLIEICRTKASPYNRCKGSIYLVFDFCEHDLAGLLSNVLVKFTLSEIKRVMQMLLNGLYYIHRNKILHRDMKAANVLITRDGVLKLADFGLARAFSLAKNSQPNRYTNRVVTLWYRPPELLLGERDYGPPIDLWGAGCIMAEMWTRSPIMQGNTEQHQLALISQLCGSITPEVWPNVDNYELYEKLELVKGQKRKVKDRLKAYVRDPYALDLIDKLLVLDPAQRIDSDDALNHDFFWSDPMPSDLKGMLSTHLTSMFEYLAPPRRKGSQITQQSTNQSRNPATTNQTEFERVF
T2 sequence (O75909 1-357 isoform O75909-1 partner): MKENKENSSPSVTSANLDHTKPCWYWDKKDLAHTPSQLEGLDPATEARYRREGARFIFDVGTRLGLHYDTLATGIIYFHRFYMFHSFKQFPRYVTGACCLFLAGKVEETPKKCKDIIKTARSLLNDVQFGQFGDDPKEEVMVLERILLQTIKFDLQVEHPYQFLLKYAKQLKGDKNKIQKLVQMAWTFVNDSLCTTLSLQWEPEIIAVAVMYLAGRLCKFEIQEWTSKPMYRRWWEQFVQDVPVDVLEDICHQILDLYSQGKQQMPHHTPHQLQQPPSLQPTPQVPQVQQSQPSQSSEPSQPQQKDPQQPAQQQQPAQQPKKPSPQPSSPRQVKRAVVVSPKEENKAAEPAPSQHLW
Description: LanthaScreen Eu Kinase Binding Assay, CDK9/Cyclin K. To be noted: tracer 236, read-out: CDK9/Cyclin K (activity range), Kd. As to the method:
as §1, §2

Another assay concerns the target T3, CDK9/Cyclin T1 (Homo sapiens, UniProt P50750).
T3 construct: His; purchased Invitrogen
Description: LanthaScreen Eu Kinase Binding Assay, CDK9/Cyclin T1. To be noted: tracer 236, read-out: CDK9/Cyclin T1 (activity range), Kd. As to the method:
as §1, §2

T3 sequence (P50750 whole entry): as the sequence (P50750 whole entry) above
T3 sequence (O60563 whole entry partner): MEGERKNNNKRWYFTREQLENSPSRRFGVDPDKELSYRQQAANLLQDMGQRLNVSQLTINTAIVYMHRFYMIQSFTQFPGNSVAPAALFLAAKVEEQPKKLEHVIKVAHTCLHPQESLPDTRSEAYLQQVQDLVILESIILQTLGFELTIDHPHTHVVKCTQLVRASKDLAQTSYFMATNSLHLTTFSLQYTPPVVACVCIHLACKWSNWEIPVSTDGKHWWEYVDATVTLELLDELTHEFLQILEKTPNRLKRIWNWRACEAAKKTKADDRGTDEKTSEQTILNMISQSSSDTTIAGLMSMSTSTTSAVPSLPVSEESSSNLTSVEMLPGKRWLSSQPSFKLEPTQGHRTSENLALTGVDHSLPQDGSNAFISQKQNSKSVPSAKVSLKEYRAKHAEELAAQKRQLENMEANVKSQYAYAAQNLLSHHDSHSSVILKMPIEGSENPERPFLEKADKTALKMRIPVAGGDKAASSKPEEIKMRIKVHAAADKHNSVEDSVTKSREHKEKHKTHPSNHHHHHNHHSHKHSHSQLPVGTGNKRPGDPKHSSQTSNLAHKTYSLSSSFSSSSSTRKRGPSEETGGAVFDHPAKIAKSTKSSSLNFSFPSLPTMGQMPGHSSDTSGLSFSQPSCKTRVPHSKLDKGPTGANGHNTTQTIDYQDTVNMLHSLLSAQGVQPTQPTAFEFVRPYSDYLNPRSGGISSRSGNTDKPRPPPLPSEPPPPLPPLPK
T1 sequence (P50613 whole entry): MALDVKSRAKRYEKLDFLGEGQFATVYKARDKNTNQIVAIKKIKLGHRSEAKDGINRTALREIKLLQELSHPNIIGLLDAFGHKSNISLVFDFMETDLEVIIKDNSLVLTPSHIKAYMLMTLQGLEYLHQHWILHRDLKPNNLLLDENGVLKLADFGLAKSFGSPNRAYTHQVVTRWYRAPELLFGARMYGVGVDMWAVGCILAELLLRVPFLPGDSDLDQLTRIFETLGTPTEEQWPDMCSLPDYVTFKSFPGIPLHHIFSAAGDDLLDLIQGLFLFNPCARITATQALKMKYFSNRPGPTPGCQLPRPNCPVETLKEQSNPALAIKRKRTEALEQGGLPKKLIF
T1 sequence (P51946 whole entry partner): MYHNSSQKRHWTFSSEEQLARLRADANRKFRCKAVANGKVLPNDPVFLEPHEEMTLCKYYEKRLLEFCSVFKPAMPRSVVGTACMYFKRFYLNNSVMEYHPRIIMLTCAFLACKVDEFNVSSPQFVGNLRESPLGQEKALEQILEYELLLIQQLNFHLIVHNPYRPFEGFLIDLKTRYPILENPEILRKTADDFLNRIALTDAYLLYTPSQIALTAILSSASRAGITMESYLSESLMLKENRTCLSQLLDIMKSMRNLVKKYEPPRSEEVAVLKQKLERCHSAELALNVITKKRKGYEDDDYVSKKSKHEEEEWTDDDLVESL
T1 sequence (P51948 whole entry partner): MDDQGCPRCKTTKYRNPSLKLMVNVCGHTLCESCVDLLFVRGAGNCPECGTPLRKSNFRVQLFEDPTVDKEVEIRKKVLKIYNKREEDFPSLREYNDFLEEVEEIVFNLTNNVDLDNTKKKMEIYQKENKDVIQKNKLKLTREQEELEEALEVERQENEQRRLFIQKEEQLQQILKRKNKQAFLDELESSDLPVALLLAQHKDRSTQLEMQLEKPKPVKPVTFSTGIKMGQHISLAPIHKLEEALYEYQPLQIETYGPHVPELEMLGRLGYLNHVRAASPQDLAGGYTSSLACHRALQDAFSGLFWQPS

Consider `NS(=O)(=O)Cc1cccc(Nc2ncnc(N3CCCC(F)(F)C3)n2)c1` [Compound B3, 3-[(4-(3,3-Difluoropiperidin-1-yl)-1,3,5-triazin-2-yl)amino]-benzenemethanesulfonamide], for which the figures for the pKd at CDK7/CyclinH/MAT1, on CDK9/Cyclin K and at CDK9/Cyclin T1 were below 5.00, 6.00 to 7.00 and 6.00 to 7.00, respectively.

On to `Nc1cccc2c1CCN(c1ncnc(Nc3cccc(CS(N)(=O)=O)c3)n1)C2` [Compound B41, 3-[(4-(5-Amino-3,4-dihydroisoquinolin-2(1H)-yl)-1,3,5-triazin-2-yl)amino]benzenemethanesulfonamide], for which the pKd on CDK7/CyclinH/MAT1 is below 5.00; at CDK9/Cyclin K, 5.00 to 6.00; on CDK9/Cyclin T1, 5.00 to 6.00.

As to `CN1CCN(c2ncnc(Nc3cccc(CS(N)(=O)=O)c3)n2)CC1` [Compound B12, 3-[(4-(4-Methylpiperazin-1-yl)-1,3,5-triazin-2-yl)amino]-benzenemethanesulfonamide], the pKd on CDK7/CyclinH/MAT1, on CDK9/Cyclin K and on CDK9/Cyclin T1 was below 5.00 each time.

With `NS(=O)(=O)Cc1cccc(Nc2ncnc(N3CCNCC3)n2)c1` [Compound B11, 3-[(4-(piperazin-1-yl)-1,3,5-triazin-2-yl)amino]benzenemethane sulfonamide], the pKd at CDK7/CyclinH/MAT1, at CDK9/Cyclin K and on CDK9/Cyclin T1 was below 5.00 throughout.

With `COC(=O)[C@H]1CCCCN1c1ncnc(Nc2cccc(CS(N)(=O)=O)c2)n1` [Compound B6, (R)-Methyl 1-[4-((3-(Sulfamoylmethyl)phenyl)amino)-1,3,5-triazin-2-yl]piperidine-2-carboxylate], the pKd on CDK7/CyclinH/MAT1 was below 5.00; at CDK9/Cyclin K, 6.00 to 7.00; at CDK9/Cyclin T1, above 7.00.

`NS(=O)(=O)Cc1cccc(Nc2ncnc(N3Cc4cccnc4C3)n2)c1` [Compound B48, 3-[(4-(5H-Pyrrolo[3,4-b]pyridin-6(7H)-yl)-1,3,5-triazin-2-yl)amino]-benzenemethanesulfonamide]: the pKd on CDK7/CyclinH/MAT1 was below 5.00; at CDK9/Cyclin K, 6.00 to 7.00; on CDK9/Cyclin T1, 5.00 to 6.00.

With `COC(=O)[C@H]1CCN1c1ncnc(Nc2cccc(CS(N)(=O)=O)c2)n1` [Compound B36, (R)-Methyl 1-[4-((3-(Sulfamoylmethyl)phenyl)amino)-1,3,5-triazin-2-yl]azetidine-2-carboxylate], the pKd at CDK7/CyclinH/MAT1 is below 5.00; at CDK9/Cyclin K, 5.00 to 6.00; on CDK9/Cyclin T1, 5.00 to 6.00.

For `NS(=O)(=O)Cc1cccc(Nc2ncnc(N3CCC3c3ccccc3)n2)c1` (racemic) [Compound B37, rac-3-[(4-(2-Phenylazetidin-1-yl)-1,3,5-triazin-2-yl)amino]-benzenemethanesulfonamide], the pKd at CDK7/CyclinH/MAT1 is below 5.00; on CDK9/Cyclin K it was 6.00 to 7.00; on CDK9/Cyclin T1, 6.00 to 7.00.

`NS(=O)(=O)Cc1cccc(Nc2ncnc(N3CCc4ccccc4C3)n2)c1` [Compound B40, 3-[(4-(3,4-Dihydroisoquinolin-2(1H)-yl)-1,3,5-triazin-2-yl)amino]-benzenemethanesulfonamide]: the pKd at CDK7/CyclinH/MAT1 is below 5.00; at CDK9/Cyclin K, 5.00 to 6.00; on CDK9/Cyclin T1, 5.00 to 6.00.

As for `NS(=O)(=O)Cc1cccc(Nc2ncnc(N3CCCC3)n2)c1` [Compound B14, 3-[(4-(Pyrrolidin-1-yl)-1,3,5-triazin-2-yl)amino]benzenemethane sulfonamide], the pKd was below 5.00 on CDK7/CyclinH/MAT1, 5.00 to 6.00 at CDK9/Cyclin K and 6.00 to 7.00 on CDK9/Cyclin T1.

With `NS(=O)(=O)Cc1cccc(Nc2ncnc(N3CCc4sccc4C3)n2)c1` [Compound B43, 3-[(4-(6,7-Dihydrothieno[3,2-c]pyridin-5(4H)-yl)-1,3,5-triazin-2-yl)amino]benzenemethanesulfonamide], the pKd on CDK7/CyclinH/MAT1 is 5.00 to 6.00; at CDK9/Cyclin K, 6.00 to 7.00; at CDK9/Cyclin T1, 6.00 to 7.00.

In the case of `NC(=O)[C@H]1CCCN1c1ncnc(Nc2cccc(CS(N)(=O)=O)c2)n1` [Compound B23, (R)-1-[4-((3-(Sulfamoylmethyl)phenyl)amino)-1,3,5-triazin-2-yl]pyrrolidine-2-carboxamide], the pKd on CDK7/CyclinH/MAT1, on CDK9/Cyclin K and on CDK9/Cyclin T1 was below 5.00 each time.

Consider `NS(=O)(=O)Cc1cccc(Nc2ncnc(N3CCNCC3CO)n2)c1` (racemic) [Compound B13, rac-3-[(4-(2-(Hydroxymethyl)piperazin-1-yl)-1,3,5-triazin-2-yl)amino]benzenemethanesulfonamide], for which the pKd on CDK9/Cyclin K and on CDK9/Cyclin T1 was below 5.00 throughout.

As to `NS(=O)(=O)Cc1cccc(Nc2ncnc(N3CCn4ccnc4C3)n2)c1` [Compound B46, 3-[(4-(5,6-Dihydroimidazo[1,2-a]pyrazin-7(8H)-yl)-1,3,5-triazin-2-yl)amino]benzenemethanesulfonamide], the values for the pKd on CDK7/CyclinH/MAT1, at CDK9/Cyclin K and on CDK9/Cyclin T1 were below 5.00, 5.00 to 6.00 and 5.00 to 6.00, respectively.

`NS(=O)(=O)Cc1cccc(Nc2ncnc(N3CCC[C@H]3C(F)(F)F)n2)c1` [Compound B16, (S)-3-[(4-(2-(Trifluoromethyl)pyrrolidin-1-yl)-1,3,5-triazin-2-yl)amino]-benzenemethanesulfonamide]: the pKd is below 5.00 at CDK7/CyclinH/MAT1, 5.00 to 6.00 on CDK9/Cyclin K and 6.00 to 7.00 at CDK9/Cyclin T1.

As for `NS(=O)(=O)Cc1cccc(Nc2ncnc(N3CCC[C@@H]3CNc3ccccc3)n2)c1` [Compound B29, (R)-3-[(4-(2-(Phenylamino-methyl)pyrrolidin-1-yl)-1,3,5-triazin-2-yl)amino]benzenemethanesulfonamide], the figures for the pKd at CDK7/CyclinH/MAT1, at CDK9/Cyclin K and at CDK9/Cyclin T1 were below 5.00, 5.00 to 6.00 and 5.00 to 6.00, respectively.

For the molecule `NS(=O)(=O)Cc1cccc(Nc2ncnc(N3CCC[C@@H]3COc3ccccc3)n2)c1` [Compound B28, (R)-3-[(4-(2-(Phenoxymethyl)pyrrolidin-1-yl)-1,3,5-triazin-2-yl)amino]-benzenemethanesulfonamide], the pKd was below 5.00 at CDK7/CyclinH/MAT1, 5.00 to 6.00 at CDK9/Cyclin K and 5.00 to 6.00 at CDK9/Cyclin T1.

Turning to `NS(=O)(=O)Cc1cccc(Nc2ncnc(N3CCCC3Cc3ccccc3)n2)c1` (racemic) [Compound B26, rac-3-[(4-(2-Benzylpyrrolidin-1-yl)-1,3,5-triazin-2-yl)amino]-benzenemethanesulfonamide], the results for the pKd at CDK7/CyclinH/MAT1, at CDK9/Cyclin K and at CDK9/Cyclin T1 were below 5.00, 6.00 to 7.00 and 6.00 to 7.00, respectively.

For the molecule `NS(=O)(=O)Cc1cccc(Nc2ncnc(N3CCCC3CCc3ccccc3)n2)c1` (racemic) [Compound B27, rac-3-[(4-(2-(2-Phenylethyl)pyrrolidin-1-yl)-1,3,5-triazin-2-yl)amino]-benzenemethanesulfonamide], the pKd was below 5.00 at CDK7/CyclinH/MAT1, 5.00 to 6.00 on CDK9/Cyclin K and 5.00 to 6.00 at CDK9/Cyclin T1.

For `NS(=O)(=O)Cc1cccc(Nc2ncnc(N3CCc4ncncc4C3)n2)c1` [Compound B39, 3-[(4-(7,8-Dihydropyrido[4,3-d]pyrimidin-6(5H)-yl)-1,3,5-triazin-2-yl)amino]benzenemethanesulfonamide], the pKd is below 5.00 at CDK7/CyclinH/MAT1, 5.00 to 6.00 on CDK9/Cyclin K and 6.00 to 7.00 on CDK9/Cyclin T1.

In the case of `COCC1CCCCN1c1ncnc(Nc2cccc(CS(N)(=O)=O)c2)n1` (racemic) [Compound B4, rac-3-[(4-(2-Methoxymethylpiperidin-1-yl)-1,3,5-triazin-2-yl)amino]-benzenemethanesulfonamide], the pKd at CDK7/CyclinH/MAT1 is below 5.00; on CDK9/Cyclin K it was 6.00 to 7.00; at CDK9/Cyclin T1 it was 6.00 to 7.00.

For `NS(=O)(=O)Cc1cccc(Nc2ncnc(N3CCC[C@H]3CN3CCCC3)n2)c1` [Compound B32, (S)-3-[(4-(2-((Pyrrolidin-1-yl)methyl)pyrrolidin-1-yl)-1,3,5-triazin-2-yl)amino]benzenemethanesulfonamide], the pKd at CDK7/CyclinH/MAT1, on CDK9/Cyclin K and at CDK9/Cyclin T1 was below 5.00 in each case.
